Literature values, collected in patent US10137085B2, “Nanoemulsion for transdermal delivery and method of making the same” (Nano and Advanced Materials Institute Limited, priority 2014, dated 2018).
Counter-ions that a name gives are not always drawn. Like-named read-outs stand apart in the source and are kept apart here.

Experiments:
[1] = o/w microemulsion with oleyl alcohol and NMP, compared to aqueous solution

enhancement of drug permeability [1] [fold]	increase of permeation efficiency through skin (solid-in-oil nanodispersion vs control aqueous solution)	increase of permeation efficiency through skin (solid-in-oil nanodispersion with urea as enhancer vs control aqueous solution, after 24 h)	Structure (SMILES)
58	–	–	C[C@]12CC[C@@H]3c4ccc(O)cc4CC[C@H]3[C@@H]1CC[C@@H]2O [estradiol]
–	two- to three	approximately 8.8 fold	CN(Cc1cnc2nc(N)nc(N)c2n1)c1ccc(C(=O)N[C@@H](CCC(=O)O)C(=O)O)cc1 [methotrexate]
520	–	–	COc1ccc([C@@H]2Sc3ccccc3N(CCN(C)C)C(=O)[C@@H]2OC(C)=O)cc1 [diltiazem HCl]
